Data: PMC3729217 (Chembiochem : a European journal of chemical biology, 2010)

What was measured:
PKCα-EGFP = PKCα-EGFP (Rattus norvegicus, UniProt P05696); assay: Plasma membrane translocation of PKCα-EGFP in transfected MCF-7 cells; assay type: cell-based; conditions: MCF-7 cells expressing PKCα-EGFP, stimulated with 40 μM, 37°C
PKCε-EGFP = target: T1, PKCε-EGFP (Rattus norvegicus, UniProt P09216); assay: Plasma membrane translocation of PKCε-EGFP in transfected MCF-7 cells; assay type: cell-based; conditions: MCF-7 cells expressing PKCε-EGFP, stimulated with 40 μM, 37°C
T1 sequence (P09216 1-737): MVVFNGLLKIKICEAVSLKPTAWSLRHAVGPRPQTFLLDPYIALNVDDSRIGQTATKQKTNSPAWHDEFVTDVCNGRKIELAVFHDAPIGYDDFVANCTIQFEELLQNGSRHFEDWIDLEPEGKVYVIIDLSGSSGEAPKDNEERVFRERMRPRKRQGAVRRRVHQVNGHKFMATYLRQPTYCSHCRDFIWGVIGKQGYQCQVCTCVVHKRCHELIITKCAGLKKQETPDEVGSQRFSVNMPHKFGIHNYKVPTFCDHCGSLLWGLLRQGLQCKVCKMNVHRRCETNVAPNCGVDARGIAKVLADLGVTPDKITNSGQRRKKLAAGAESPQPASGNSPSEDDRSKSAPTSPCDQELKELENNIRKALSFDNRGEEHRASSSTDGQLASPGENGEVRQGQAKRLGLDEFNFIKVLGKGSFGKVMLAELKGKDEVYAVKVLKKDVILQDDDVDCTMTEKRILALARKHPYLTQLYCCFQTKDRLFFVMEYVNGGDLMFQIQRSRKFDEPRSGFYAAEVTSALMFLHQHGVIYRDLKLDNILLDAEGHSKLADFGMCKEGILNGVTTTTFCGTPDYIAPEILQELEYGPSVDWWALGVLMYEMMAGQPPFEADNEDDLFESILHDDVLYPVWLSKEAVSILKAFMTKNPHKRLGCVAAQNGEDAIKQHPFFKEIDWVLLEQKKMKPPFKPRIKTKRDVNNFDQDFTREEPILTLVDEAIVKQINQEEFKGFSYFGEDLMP

PKCδ-ECFP = PKCδ-ECFP (Homo sapiens, UniProt Q05655); assay: Plasma membrane translocation of PKCδ-ECFP in transfected MCF-7 cells; assay type: cell-based, rat; conditions: MCF-7 cells expressing PKCδ-ECFP, stimulated with 40 μM, 37°C
Sequence of PKCδ-ECFP (Q05655 whole entry): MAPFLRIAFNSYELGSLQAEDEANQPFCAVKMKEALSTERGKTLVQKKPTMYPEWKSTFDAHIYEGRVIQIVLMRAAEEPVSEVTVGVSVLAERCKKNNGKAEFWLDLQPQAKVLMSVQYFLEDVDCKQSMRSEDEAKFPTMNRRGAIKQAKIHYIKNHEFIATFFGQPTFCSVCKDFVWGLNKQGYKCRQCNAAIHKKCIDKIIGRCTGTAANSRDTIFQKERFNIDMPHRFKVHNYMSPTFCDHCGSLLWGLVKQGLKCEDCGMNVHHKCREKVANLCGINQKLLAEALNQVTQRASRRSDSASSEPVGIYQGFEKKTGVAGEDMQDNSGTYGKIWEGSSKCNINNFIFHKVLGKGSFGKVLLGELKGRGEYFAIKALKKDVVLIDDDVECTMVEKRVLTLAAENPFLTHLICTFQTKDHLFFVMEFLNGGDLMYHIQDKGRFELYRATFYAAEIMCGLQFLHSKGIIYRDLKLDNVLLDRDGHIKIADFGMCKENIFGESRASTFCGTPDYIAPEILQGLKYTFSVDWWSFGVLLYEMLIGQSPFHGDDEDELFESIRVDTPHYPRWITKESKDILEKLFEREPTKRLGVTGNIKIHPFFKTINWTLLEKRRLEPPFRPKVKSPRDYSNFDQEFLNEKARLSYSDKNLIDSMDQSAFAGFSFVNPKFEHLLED

SMILES: CCCCCCCCCCCCCC(=O)O[C@@H]1[C@@H](C)[C@@]2(O)[C@@H](C=C(CO)C[C@]3(O)C(=O)C(C)=C[C@@H]23)[C@@H]2C(C)(C)[C@]12OC(C)=O [PMA, phorbol 12-myristate 13-acetate]
- t1/2, half-time of plasma membrane localization (PKCα-EGFP): 547 ± 192 s
- t1/2, half-time of plasma membrane localization (PKCε-EGFP): 31 ± 18 s
- t1/2, half-time of plasma membrane localization (PKCδ-ECFP): 47 ± 22 s
